The text below walks through data of patent publication US3954730A, “6-(Substituted-cycloalkylcarboxamide) penicillanic acids” (Bayer Aktiengesellschaft, priority 1973, dated 1976).

One assay has as its system E. coli 14. As to the kind of experiment: Minimum inhibitory concentration (MIC) in vitro, liquid medium test tube series dilution test. In kind it is cell-based. To be noted: 24 hours incubation at 37° C. How it is done: (§1) They were determined in a liquid medium in a test tube series dilution test, the readings being taken after 24 hours incubation at 37° C.
(§2) The numbers allotted to the compounds of the invention in Table 1 correspond to the numbers of the Preparative Examples in which the preparation of the particular compounds are described.
(§3) The MIC is indicated by the non-turbid test tube in the dilution series. A complete medium of the following composition was used as the growth medium: […]

For the next assay, the system named is Staph. aureus 133. The assay is described as above. In kind it is cell-based. To be noted: 24 hours incubation at 37° C. How it is done: (§4) Table 1, which follows, specifies the minimum inhibitory concentrations (MIC) in vitro, in U/ml of nutrient medium of typical compounds of the invention. They were determined in a liquid medium in a test tube series dilution test, the readings being taken after 24 hours incubation at 37° C.
as §2, §3

The test system of another assay is Staph. aureus 1756. The assay is described as above. The assay is classed as cell-based. To be noted: 24 hours incubation at 37° C. Here is the method: as §4, §2, §3
The subject of a further assay is Ent. ATCC 9790. Described as above. The assay is classed as cell-based, Enterococcus. As to conditions: 24 hours incubation at 37° C. How it is done:
as §1, §2, §3

A further assay deals with E. coli BE. Put plainly: Turbidity test in Muller-Hinton nutrient broth at 100 μg/ml. In kind it is cell-based. As to conditions: 24 hours.
A further assay deals with Salmonella sp. The description is as above. In kind it is cell-based.
A further assay has as its system Shigella sp. Described as above. In kind it is cell-based.
Assay [1] relates to Proteus indolnegativ, sp. The assay is described as above. In kind it is cell-based.
For assay [2], the system named is Pasteurella pseudotuberculosis. The assay is classed as cell-based. As to conditions: 100 μg/ml, 24 hours.
The next assay deals with Brucella sp. In kind it is cell-based. To be noted: 100 μg/ml, 24 hours.
A further assay relates to Haemophilus influenzae. As to the kind of experiment: Turbidity test in Muller-Hinton nutrient broth at 100 μg/ml. The assay is classed as cell-based.
A further assay has as its system Bordetella bronciseptica. Described as above. The assay is classed as cell-based.
The subject of assay [3] is Staphylococcus aureus 133. Described as above. In kind it is cell-based.
For assay [4], the system named is Neisseria catarrhalis sp. The assay is described as above. The assay is classed as cell-based.
For assay [5], the system named is Diplococcus pneumoniae sp. The description is as above. In kind it is cell-based.
The subject of assay [6] is Streptococcus pyogenes W. Described as above. The assay is classed as cell-based.
The next assay concerns Enterococcus sp. The assay is described as above. In kind it is cell-based.
Another assay has as its system Lactobacillus sp. The description is as above. The assay is classed as cell-based.
For assay [7], the system named is Corynebacterium diphteriae gravis. The description is as above. The assay is classed as cell-based.
Assay [8] relates to Corynebacterium pyrogenes M. Described as above. The assay is classed as cell-based.
Another assay has as its system Clostridium botulinium. The assay is classed as cell-based.
A further assay has as its system Clostridium tetani. The assay is classed as cell-based. As to conditions: 100 μg/ml, 24 hours.
A further assay concerns E. coli C 165. Put plainly: Minimum inhibitory concentration (MIC) in vitro, liquid medium test tube series dilution test. In kind it is cell-based. As to conditions: 24 hours incubation at 37° C. Here is the method: as §4, §2, §3

Where a name gives a salt, the structure may show the parent alone.

On to `CC1(C)S[C@@H]2[C@H](NC(=O)C3(C)CC3(Cl)Cl)C(=O)N2[C@H]1C(=O)O` (some centres unmarked) [Example 1, sodium salt of 6-(2,2-dichloro-1-methyl-cyclopropylcarboxamido)-penicillanic acid], for which the MIC was 128 U/ml in the assay on E. coli 14, 0.2 U/ml against Staph. aureus 133, 32-64 U/ml against Staph. aureus 1756 and 16-32 U/ml with Ent. ATCC 9790. Besides, the “freedom from turbidity (anti-bacterial action)” value (“freedom from turbidity” for short) (with E. coli BE; in the assay on Salmonella sp.; with Shigella sp.; in assay [1]; in assay [2]; in the assay on Brucella sp.) was “free from turbidity” throughout. In addition, the “freedom from turbidity” value (in the assay on Haemophilus influenzae; in the assay on Bordetella bronciseptica; in assay [3]; in assay [4]; in [5]; in [6]) was “free from turbidity” throughout. Further, the “freedom from turbidity” value (with Enterococcus sp.; with Lactobacillus sp.; in [7]; in [8]; in the assay on Clostridium botulinium; with Clostridium tetani) was “free from turbidity” each time.
Consider `CC1(C)S[C@@H]2[C@H](NC(=O)C3(C)CC3(Br)Br)C(=O)N2[C@H]1C(=O)O` (some centres unmarked) [Example 2, sodium salt of 6-(2,2-dibromo-1-methyl-cyclopropyl-carboxamido)-penicillanic acid], for which the MIC against E. coli 14 stood at 128 U/ml; against Staph. aureus 133, 0.2 U/ml; against Staph. aureus 1756, 128 U/ml; with Ent. ATCC 9790, 32 U/ml.
With `CC1(C)S[C@@H]2[C@H](NC(=O)C3CC3C#N)C(=O)N2[C@H]1C(=O)O` (some centres unmarked) [Example 3, sodium salt of 6-(2-cyano-1-cyclopropylcarboxamido)-penicillanic acid], the MIC against E. coli 14 is given as 128-256 U/ml; with Staph. aureus 133, 2-4 U/ml; with Ent. ATCC 9790 it was 64-128 U/ml.
In the case of `CC1(C)S[C@@H]2[C@H](NC(=O)C3CC(Cl)C3)C(=O)N2[C@H]1C(=O)O` (some centres unmarked) [Example 4, sodium salt of 6-(3-chloro-cyclobutylcarboxamido)-penicillanic acid], the MIC in the assay on E. coli 14 is 32-64 U/ml; against E. coli C 165 it was 128-256 U/ml; with Staph. aureus 133, 2-4 U/ml; in the assay on Staph. aureus 1756 it was 32-64 U/ml; in the assay with Ent. ATCC 9790, 8-16 U/ml.
With `CC1(C)S[C@@H]2[C@H](NC(=O)C3(C#N)CCC3)C(=O)N2[C@H]1C(=O)O` [Example 5, sodium salt of 6(1-cyano-1-cyclobutylcarboxamido)-penicillanic acid], the MIC against E. coli 14 is on record as 32-64 U/ml; in the assay on E. coli C 165, 128 U/ml; in the assay on Staph. aureus 133, 0.2 U/ml; with Staph. aureus 1756, 128 U/ml; against Ent. ATCC 9790 it was 8 U/ml.
`CC1(C)S[C@@H]2[C@H](NC(=O)C3CCC(Cl)C3)C(=O)N2[C@H]1C(=O)O` (some centres unmarked) [Example 6, sodium salt of 6-(4-chloro-1-cyclopentylcarboxamide)-penicillanic acid]: the MIC was 32 U/ml with E. coli 14; 128 U/ml against E. coli C 165; 0.1 U/ml with Staph. aureus 133; 32-64 U/ml with Staph. aureus 1756; 8-16 U/ml in the assay on Ent. ATCC 9790.
For the compound `CC1(C)S[C@@H]2[C@H](NC(=O)C3CC(Cl)C(Cl)C3)C(=O)N2[C@H]1C(=O)O` (some centres unmarked) [Example 7, sodium salt of 6-(3,4-dichlorocyclopentylcarboxamido)-penicillanic acid], the MIC in the assay on E. coli 14 is recorded as 32 U/ml; in the assay on E. coli C 165 it was 128 U/ml; in the assay with Staph. aureus 133, 0.1 U/ml; against Staph. aureus 1756, 32-64 U/ml; against Ent. ATCC 9790, 8-16 U/ml.
As to `CC1(C)S[C@@H]2[C@H](NC(=O)C3(Cl)CCCC3=O)C(=O)N2[C@H]1C(=O)O` (some centres unmarked) [Example 8, Sodium salt of 6-(cyclopentanone-2-chloro-2-carboxamido)-penicillanic acid], the MIC in the assay with E. coli 14 is reported as 128 U/ml; against Staph. aureus 133 it was 2-4 U/ml; with Ent. ATCC 9790 it was 128 U/ml.
`CC1(C)S[C@@H]2[C@H](NC(=O)C3CCC(Cl)CC3)C(=O)N2[C@H]1C(=O)O` (some centres unmarked) [Example 9, sodium salt of 6-(4-chloro-1-cyclohexylcarboxamido)-penciillanic acid]: the MIC was 64 U/ml against E. coli 14, 0.1 U/ml against Staph. aureus 133, 64 U/ml against Staph. aureus 1756 and 8-16 U/ml in the assay on Ent. ATCC 9790.
